Tested on: BH4 formation in HaCaT cells
Test: BH4 formation from sepiapterin in intact HaCaT cells (HPLC)
Assay type: cell-based, human
Settings: MTX 1 μM, 2 h, then 200 μM sepiapterin 3 h; BH2 accumulates
Experimental: The growth medium was then removed and the cells incubated with growth medium containing 100 μM sepiapterin. […] BH2 and BH4 were then analyzed on a Jasco high-performance liquid chromatography system (Easton, MD) fitted with a Maxsil-10 C18 column (250 × 4 mm; Phenomenex, Torrance, CA). […] Cell viability following drug treatments was greater than 95 %.
Fig. 3. Effects of auranofin on BH2 and BH4 production in intact HaCaT cells treated with sepiapterin. HaCaT cells (~1 × 10^6 cells/well in 6 well culture plates) were incubated with control medium or medium containing increasing concentrations of auranofin for 2 h followed by 100 μM sepiapterin. After an additional 3 h, BH2 and BH4 were extracted from the cells and analyzed by HPLC with fluorescence detection. Left panel: Chromatograms showing BH2 and BH4 content of control cells and cells treated with Auranofin.
Fig. 6. […] Cells were treated with control medium or medium containing MTX (1 μM, 2 h), an inhibitor of DHFR, followed by 200 μM sepiapterin (upper panel) or BH2 (lower panel). After an additional 3 h incubation, cells were rinsed with PBS; BH2 and BH4 were then extracted and analyzed by HPLC as described in the Materials and Methods.

`CN(Cc1cnc2nc(N)nc(N)c2n1)c1ccc(C(=O)N[C@@H](CCC(=O)O)C(=O)O)cc1` [methotrexate] was tested, and the “effect on formation of BH4 from sepiapterin in HaCaT cells” value was “inhibit the formation of BH4 from sepiapterin”.

Reference: PMC13249053, “Mechanism of auranofin toxicity: Inhibition of tetrahydrobiopterin metabolism” (Toxicology and applied pharmacology, 2025)
